Measured values from PubChem BioAssay AID504359 (Broad Institute, 2011).
Activity calls are given as the source filed them.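 Rule for the calls: active = fitted curve climbs past 10% caspase activation, relative to the positive control, at or below the top valid tested dose; inactive = the rest, including activity in the opposite direction.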

system: not listed separately; experiment: apoptosis induction in tBid-primed mouse fibroblasts – cell-based, MEF A1-2A-tBid, luminescence, dry powder, set 2, orthogonal assay for A1 inhibitor project, dose response (AID 504359); settings: MEF A1-2A-tBid cells, caspase 3/7 luminescence, 3 h; at 35 µM (top of the series)

Q: Which caspase activation does the source give for `Cc1ccc(Sc2c([N+](=O)[O-])c(=O)oc3ccccc23)cc1` here?
A: -3.75% (inactive)

Q: With `Cc1ccc(Nc2c([N+](=O)[O-])c(=O)oc3ccccc23)cc1` as the compound, how does the caspase activation read?
A: 1.44% (inactive)

Q: Which caspase activation does the source give for `O=c1oc2ccccc2c(Cl)c1[N+](=O)[O-]` here?
A: -6.09% (inactive)

Q: With `O=c1oc2ccccc2c(Sc2ccccc2)c1[N+](=O)[O-]` as the compound, how does the caspase activation read?
A: -5.14% (inactive)

Q: For `Cc1ccc(Sc2cc(=O)n(C)c3ccccc23)cc1`, which caspase activation is on record?
A: -7.35% (inactive)

Q: With `Cn1c(=O)c([N+](=O)[O-])c(Oc2ccccc2)c2ccccc21` as the compound, how does the caspase activation read?
A: 0.967% (inactive)

Q: Which caspase activation does the source give for `CCOCCCNc1c([N+](=O)[O-])c(=O)n(C)c2ccccc12` here?
A: 0.513% (inactive)

Q: With `O=c1oc2ccccc2c(Nc2cc(Cl)cc(Cl)c2)c1[N+](=O)[O-]` as the compound, how does the caspase activation read?
A: -1.39% (inactive)

Q: Which caspase activation does the source give for `O=c1oc2ccccc2c(N2CCCCC2)c1[N+](=O)[O-]` here?
A: -2.24% (inactive)

Q: For `C/C1=C/C(=O)O[C@@H]2C[C@@H](CC[C@H](C)/C=C\CC1)O[C@@](O)(C1CSC(=O)N1)C2` (stereo partly specified), which caspase activation is on record?
A: 3.32% (inactive)

Q: For `Cc1ccc(Nc2c([N+](=O)[O-])c(=O)n(C)c3ccccc23)cc1`, which caspase activation is on record?
A: -0.806% (inactive)

Q: Which caspase activation does the source give for `CN1C(=O)C(C)(C)N(Cc2ccccc2)c2ccccc21` here?
A: 0.072% (inactive)

Q: For `CCSc1c([N+](=O)[O-])c(=O)oc2ccccc12`, which caspase activation is on record?
A: -3.21% (inactive)

Q: With `CCOC(=O)N1CCN(c2c([N+](=O)[O-])c(=O)n(C)c3ccccc23)CC1` as the compound, how does the caspase activation read?
A: -0.293% (inactive)

Q: For `O=C(Oc1cccc(/C=N/Nc2nc(Nc3ccccc3)nc(N3CCOCC3)n2)c1)c1ccco1`, which caspase activation is on record?
A: 3.43% (inactive)

Q: With `Cn1c(=O)c([N+](=O)[O-])c(Nc2ccc(Cl)cc2)c2ccccc21` as the compound, how does the caspase activation read?
A: -0.562% (inactive)

system: MEF A1-2A-tBid cells, caspase 3/7 luminescence, 3 h; experiment: as above; settings: not given

Q: For `Cn1c(=O)c([N+](=O)[O-])c(-n2cnc3ccccc32)c2ccccc21`, which AC10 is on record?
A: 24.8 µM

Q: With `O=[N+]([O-])c1cnc2ccccc2c1Sc1ccccc1` as the compound, how does the AC10 read?
A: 7.93 µM

Q: For `Cc1ccc(Sc2c([N+](=O)[O-])c(=O)n(C)c3ccccc23)cc1`, which AC10 is on record?
A: 7.45 µM

Q: For `Cn1c(=O)c([N+](=O)[O-])c(Cl)c2ccccc21`, which AC10 is on record?
A: 0.716 µM

Q: With `Cc1ccc(Sc2c([N+](=O)[O-])cnc3ccccc23)cc1` as the compound, how does the AC10 read?
A: 5.49 µM
